{
  "source": "paper PMC3966057",
  "about": "(Theranostics, 2014)",
  "key": {"4T1 tumors": {"test_system": "4T1 tumors", "assay": "18F-DPA-714 PET imaging of 4T1 xenograft tumor model", "format": "in vivo, mouse", "details": "PET 1 h p.i., tumor volume 100-300 mm^3, FVB mice, mean ± SD"}, "A549 tumors": {"test_system": "A549 tumors", "assay": "18F-DPA-714 PET imaging of A549 xenograft tumor model", "format": "in vivo, mouse", "details": "PET 1 h p.i., tumor volume 100-300 mm^3, athymic nude mice, mean ± SD"}, "HT29 tumors": {"test_system": "HT29 tumors", "assay": "18F-DPA-714 PET imaging of HT29 xenograft tumor model", "format": "in vivo, mouse", "details": "PET 1 h p.i., tumor volume 100-300 mm^3, athymic nude mice, mean ± SD"}, "RAW264.7 cells": {"test_system": "RAW264.7 cells", "assay": "RAW 264.7 macrophage cell efflux of 18F-DPA-714", "format": "cell-based, mouse", "details": "2 h incubation with tracer"}, "INS-1 tumors": {"test_system": "INS-1 tumors", "assay": "18F-DPA-714 PET imaging of INS-1 xenograft tumor model", "format": "in vivo, mouse", "details": "PET 1 h p.i., tumor volume 100-300 mm^3, athymic nude mice, mean ± SD"}, "U87MG tumors": {"test_system": "U87MG tumors", "assay": "18F-DPA-714 PET imaging of U87MG xenograft tumor model", "format": "in vivo, mouse", "details": "PET 1 h p.i., tumor volume 100-300 mm^3, athymic nude mice, mean ± SD"}},
  "data": [
    {"smiles": "CCN(CC)C(=O)Cc1c(-c2ccc(OCC[18F])cc2)nn2c(C)cc(C)nc12", "note": "[18F-DPA-714]", "values": [
      {"measurement": "4T1 tumor uptake of 18F-DPA-714", "setting": "4T1 tumors", "value": "1.22 ± 0.55", "unit": "%ID/g"},
      {"measurement": "A549 tumor uptake of 18F-DPA-714", "setting": "A549 tumors", "value": "0.46 ± 0.28", "unit": "%ID/g"},
      {"measurement": "HT29 tumor uptake of 18F-DPA-714", "setting": "HT29 tumors", "value": "0.91 ± 0.08", "unit": "%ID/g"},
      {"measurement": "Tracer retention after 1 h efflux as share of uptake", "setting": "RAW264.7 cells", "value": "around 50%"},
      {"measurement": "INS-1 tumor uptake of 18F-DPA-714", "setting": "INS-1 tumors", "value": "1.13 ± 0.33", "unit": "%ID/g"},
      {"measurement": "U87MG tumor uptake of 18F-DPA-714", "setting": "U87MG tumors", "value": "1.69 ± 0.67", "unit": "%ID/g"}
    ]}
  ]
}
